Values quoted from earlier work, collected in US20060165671A1, “Novel nutraceutical compositions comprising epigallocatechin gallate” (priority 2002, published 2006).

How the values were obtained:
[1] = tested on: muscle and adipose cells in culture
[2] = glucose intolerant and non-insulin dependent diabetic animals
[3] = patients with type 2
[4] = after CoQ10 supplementation, several studies
pre-adipocyte cells = details: compared to the specific PPAR-γ agonist ciglitazone
rat primary hepatocytes = details: concentrations from about 10 to about 100 μM

Compound: 1,2-dithiolane-3-pentaenoic acid [Lipoic acid]
- glucose transport [1]: stimulates glucose transport
- basal and insulin-stimulated glucose uptake by skeletal muscles [2]: raised
- glucose disposal [3]: improves glucose disposal

Compound: COC1=C(OC)C(=O)C(C/C=C(\C)CC/C=C(\C)CC/C=C(\C)CC/C=C(\C)CC/C=C(\C)CC/C=C(\C)CC/C=C(\C)CC/C=C(\C)CC/C=C(\C)CCC=C(C)C)=C(C)C1=O [CoQ10, 6-Decaprenyl-2,3-dimethoxy-5-methyl-1,4-benzoquinone]
- LDL oxidation [4]: reduced

Compound: CC(C)CCCC(C)CCCC(C)CCCC(C)CC(=O)O (stereo not drawn) [Phytanic acid, 3,7,11,15-tetramethylhexadecanoic acid]
- differentiation of pre-adipocyte cells into mature adipocytes (pre-adipocyte cells): only minor effects
- uptake of glucose (rat primary hepatocytes): enhances uptake of glucose
